Measurements published in US20150216182A1, “COMPOSITIONS AND METHODS OF THE ATTRACTION AND REPULSION OF INSECTS” (Olfactor Laboratories, Inc., priority 2012, published 2015).
Where a name gives a salt, the structure may show the parent alone.

Experiments:
[1] = tested on: larvae; assay: larvicidal activity assay; type: in vivo; settings: 24 hour exposure, dead larvae / total larvae; for % Lethality at 100 ppm / pest or weed control at 100 ppm: 100 ppm compound; for % Lethality with 0.25% compound conc. / pest or weed control at 0.25 %: 0.25% compound; for pest or weed control at 0.25 %: read-out: % Lethality with 0.25% compound conc.; for pest or weed control at 100 ppm: read-out: % Lethality at 100 ppm
Description: A 6-well plate (Corning Life Sciences, Tewksbury, Mass.) is used to test a compound's larvicidal activity. […] After a 24 hour exposure, the number of dead larvae are counted and recorded.
The results are presented in Table 17 as % lethality (the number of dead larvae divided by the total number of larvae).

[2] = tested on: bed bugs (Cimex lectularius); assay: bed bug repellency assay; type: in vivo; settings: compound or combination on filter paper harborage, ten bed bugs
Description: Compounds and combinations of compounds of the present invention were assayed for their ability to repel bed bugs (Cimex lectularius) using a bed bug repellency assay. This assay takes advantage of the bed bug's natural tendency to seek harborage. Two petri dishes were obtained and the inner areas of each were sanded down (leaving the perimeter smooth.) Talc was applied on the perimeter and on the inside walls of the petri dishes with a small paint brush to prevent bed bugs from escaping. A cut off top portion of a solo bathroom cup was placed upside down in the center of one petri dish. A large plastic secondary container was gathered and a paper towel was laid down inside the bottom. The petri dish was then placed inside and ten bed bugs were placed inside the cut off portion of the solo cup. Next, two pieces of filter paper were cut down the middle to yield 4 equally sized halves. 3 pieces were placed inside a glass dish ([…]) and the remaining piece was placed in a separate dish. All 4 pieces were folded down the middle to create a “tent” or “harborage” when laid such that the folded crease faced up. 100 microliters of isopropyl alcohol was pipetted into 3 pieces of filter paper (all housed in the first glass dish.) In a separate 4 ml vial, 90 microliters of isopropyl alcohol was combined and vortexed with 10 microliters of the compound or compound combination being tested. 100 microliters of this solution [comprising a total of 100 mg of compound(s)] was pipetted onto the filter paper in the separate dish. All filter papers were then allowed to dry. Once dry, experiments were conducted first with two filter paper halves comprising only the isopropyl alcohol (control experiment) and then with the remaining filter paper halves [one with only isopropyl alcohol and one comprising the test compound(s).] Filter paper halves were placed on opposing sides of experimental petri dishes and bed bugs were allowed to move freely within the dishes for 5 minutes. Movement of bed bugs beneath each filter paper tent was recorded. […] In the Table, “Rep” refers to repellency and “Cmpd” refers to compound.

[3] = tested on: female mosquitoes; settings: single compound, female mosquitoes, two hours; for % mortality with 0.2 mg/ml: 0.2 mg/ml on filter paper; for % mortality with 2 mg/ml: 2 mg/ml on filter paper
[4] = tested on: cpA neurons; assay: extracellular single-sensillum electrophysiology: activation of cpA neuronal activity; settings: for Class: Table 6, single compounds, increase over baseline cpA neuronal activity; for Comp B Class / Comp A Class: Table 9; for Comp B Class: component B tested individually; for Comp A Class: component A tested individually; for Class B (activator class of the individual component): Table 15, single component alone, Mod Actv
[5] = tested on: cpB and cpC neurons; assay: extracellular single-sensillum electrophysiology: beta activators; type: in vivo, Aedes aegypti; settings: for Class (beta activator, individual component) / Class A (beta activator, individual component): Beta Actv; for Class A (beta activator, individual component): Table 15, single component alone; for beta activator (stimulates cpB and cpC neuronal activity): single compound
Description: Three types of CO2-responsive neurons reside in the maxillary palp of mosquitoes. These include cpA, cpB and cpC neurons. […] These neurons produce spikes with much lower amplitude than those produced by cpA neurons. Although the activity from cpB and cpC neurons cannot easily be distinguished from one another, their collective activity can be distinguished from cpA neurons due to their characteristic spikes. This is useful in the identification of compounds and compositions that only activate or inhibit cpB and cpC neurons or compounds and compositions that activate or inhibit both.
Carbon dioxide receptor neurons are housed within the basiconic sensilla of the mosquito maxillary palp. While activity from cpA neurons produces the largest amplitude spike, cpB and cpC neurons present in this region are also responsive to skin odors. Activity from these neurons can also be detected through the electrophysiological methods described in Example 1.
Although the activity from cpB and cpC neurons cannot easily be distinguished from one another, their collective activity can be distinguished from cpA neurons due to their production of spikes with much lower amplitude than those produced by cpA neurons.

[6] = tested on: female mosquitoes; assay: whole plant or invertebrate; settings: 2 h; for mortality at 200 µg/mL: read-out: % mortality with 0.2 mg/ml; for mortality at 2000 µg/mL: read-out: % mortality with 2 mg/ml
[7] = tested on: cpA neurons; assay: extracellular single-sensillum electrophysiology: inhibition of CO2-responsive (cpA) neuronal activity; settings: for Class: Table 10, single compounds, percent reduction in cpA activity compared to baseline; for Class (inhibitor class of the individual component): Inh = inhibitor
[8] = Table 13, single component alone
[9] = Table 16, single component alone

CC1=C2CCC(C)CC2OC1=O (stereo not drawn) [OLI0111, Menthalactone]
% Lethality with 0.25% compound conc. [1]: 100% lethal
% Lethality at 100 ppm [1]: 33% lethal
% Rep (bed bug repellency) [2]: 13%
% mortality with 0.2 mg/ml [3]: 0%
% mortality with 2 mg/ml [3]: 100%

C/C=C(\C)C=O [OLI0013, trans-2-methyl-2-butenal]
% Lethality with 0.25% compound conc. [1]: 72% lethal
% Lethality at 100 ppm [1]: 0% lethal
% mortality with 0.2 mg/ml [3]: 0%
% mortality with 2 mg/ml [3]: 0%
Class [4]: Strong Activator (strong activators yield an increase in activity that is >60 spk/sec over baseline neuronal activity)

CC/C=C/CC(=O)OC [OLI0100, methyl (E)-hex-3-enoate]
Class (beta activator, individual component) [5, 8]: Beta
Class A (beta activator, individual component) [5]: Beta
Class (beta activator, individual component) [5, 9]: Beta
beta activator (stimulates cpB and cpC neuronal activity) [5]: beta activators
pest or weed control at 0.25 % [1]: 100%
pest or weed control at 100 ppm [1]: 0%
% Rep (bed bug repellency) [2]: 17%
mortality at 200 µg/mL [6]: 0%
mortality at 2000 µg/mL [6]: 0%
Comp B Class [4]: Beta

CC/C=C\CCCCO [OLI0084, cis-5-octen-1-ol]
Class (beta activator, individual component) [5, 9]: Beta
beta activator (stimulates cpB and cpC neuronal activity) [5]: beta activator
pest or weed control at 0.25 % [1]: 100%
pest or weed control at 100 ppm [1]: 0%
% Rep (bed bug repellency) [2]: 82%
mortality at 200 µg/mL [6]: 0%
mortality at 2000 µg/mL [6]: 95%
Class [7]: Mild Inhibitor (mild inhibitors (reducing activity by 20-40%))
Class (inhibitor class of the individual component) [7, 8]: Mild
Class (inhibitor class of the individual component) [7, 9]: Mild

CCCCCC(=O)CC [OLI0075, octanone-3]
% Lethality with 0.25% compound conc. [1]: 100% lethal
% Lethality at 100 ppm [1]: 50% lethal
% mortality with 0.2 mg/ml [3]: 0%
% mortality with 2 mg/ml [3]: 0%
Class [7]: Moderate Inhibitor (moderate inhibitors (reducing activity by 40-60%))
Class (inhibitor class of the individual component) [7, 8]: Mod

methoxy cinnamic aldehyde [OLI0112]
% Lethality with 0.25% compound conc. [1]: 100% lethal
% Lethality at 100 ppm [1]: 0% lethal
% Rep (bed bug repellency) [2]: 23%
% mortality with 0.2 mg/ml [3]: 0%
% mortality with 2 mg/ml [3]: 100%

COC(/C=C/c1ccccc1)OC [OLI0106, cinnamic aldehyde dimethyl acetal]
% Lethality with 0.25% compound conc. [1]: 100% lethal
% Lethality at 100 ppm [1]: 10% lethal
% Rep (bed bug repellency) [2]: 90%
% mortality with 0.2 mg/ml [3]: 0%
% mortality with 2 mg/ml [3]: 100%

CC(=O)/C=C/C=C(C)C [OLI0059]
% Lethality with 0.25% compound conc. [1]: 100% lethal
% Lethality at 100 ppm [1]: 58% lethal
% Rep (bed bug repellency) [2]: 87%
% mortality with 0.2 mg/ml [3]: 0%
% mortality with 2 mg/ml [3]: 0%
Class [4]: Mild Activator (mild activators yield an increase in neuronal activity that is between 20 and 40 spk/sec over baseline neuronal activity)

CC(C)CCOC=O [OLI0098, isoamyl formate]
Class A (beta activator, individual component) [5]: Beta
beta activator (stimulates cpB and cpC neuronal activity) [5]: beta activators

CCCC1CCC(=O)O1 (stereo not drawn) [OLI0024, gamma-heptalactone]
% Lethality with 0.25% compound conc. [1]: 100% lethal
% Lethality at 100 ppm [1]: 0% lethal
% Rep (bed bug repellency) [2]: 71%
% mortality with 0.2 mg/ml [3]: 0%
% mortality with 2 mg/ml [3]: 0%
Class [4]: Moderate Activator (Moderate activators yield an increase in neuronal activity that is between 40 and 60 spk/sec over baseline neuronal activity)
Comp A Class [4]: Mod
Comp B Class [4]: Mod
Class B (activator class of the individual component) [4]: Mod

furfurylpentenoate [OLI0088]
Class (beta activator, individual component) [5, 9]: Beta
Class [7]: Mild Inhibitor (mild inhibitors (reducing activity by 20-40%))
Class (inhibitor class of the individual component) [7, 9]: Mod

N#C/C=C/c1ccccc1 [OLI0020, cinnamyl nitrile]
% Lethality with 0.25% compound conc. [1]: 100% lethal
% Lethality at 100 ppm [1]: 100% lethal
% Rep (bed bug repellency) [2]: 56%
% mortality with 0.2 mg/ml [3]: 0%
% mortality with 2 mg/ml [3]: 100%
Class [4]: Moderate Activator (Moderate activators yield an increase in neuronal activity that is between 40 and 60 spk/sec over baseline neuronal activity)
Comp B Class [4]: Mod
Class B (activator class of the individual component) [4]: Mod

CC/C=C\CCOC=O [OLI0096, cis-3-hexenyl formate]
Class A (beta activator, individual component) [5]: Beta
beta activator (stimulates cpB and cpC neuronal activity) [5]: beta activators
pest or weed control at 0.25 % [1]: 30%
pest or weed control at 100 ppm [1]: 0%
% Rep (bed bug repellency) [2]: 6%
mortality at 200 µg/mL [6]: 0%
mortality at 2000 µg/mL [6]: 0%

C/C=C(\C)C(=O)OC(CC)CCCCC (stereo not drawn) [OLI0079, 1-ethylhexyl tiglate]
beta activator (stimulates cpB and cpC neuronal activity) [5]: beta activators
pest or weed control at 0.25 % [1]: 100%
pest or weed control at 100 ppm [1]: 0%
% Rep (bed bug repellency) [2]: 49%
mortality at 200 µg/mL [6]: 0%
mortality at 2000 µg/mL [6]: 15%
Class [7]: Mild Inhibitor (mild inhibitors (reducing activity by 20-40%))
inhibitor class of single compound ([7]; single compound): mild cpA inhibitors

O=CCCc1ccccc1 [OLI0029, phenylpropylaldehyde]
% Lethality with 0.25% compound conc. [1]: 100% lethal
% Lethality at 100 ppm [1]: 0% lethal
% Rep (bed bug repellency) [2]: 100%
% mortality with 0.2 mg/ml [3]: 0%
% mortality with 2 mg/ml [3]: 15%
Class [4]: Moderate Activator (Moderate activators yield an increase in neuronal activity that is between 40 and 60 spk/sec over baseline neuronal activity)
Comp A Class [4]: Mod
Comp B Class [4]: Mod
Class B (activator class of the individual component) [4]: Mod

CCCCC(=O)OCc1ccco1 [OLI0074, furfurylpentanoate]
Class (beta activator, individual component) [5, 9]: Beta
beta activator (stimulates cpB and cpC neuronal activity) [5]: beta activator
pest or weed control at 0.25 % [1]: 100%
pest or weed control at 100 ppm [1]: 0%
% Rep (bed bug repellency) [2]: 100%
mortality at 200 µg/mL [6]: 0%
mortality at 2000 µg/mL [6]: 0%
Class [7]: Moderate Inhibitor (moderate inhibitors (reducing activity by 40-60%))
Class (inhibitor class of the individual component) [7, 8]: Mod
Class (inhibitor class of the individual component) [7, 9]: Mod
